Twelve compounds from patent publication US10112926B2 (priority 2014, dated 2018) can be followed below.

The structures appear in SMILES notation. Counter-ions that a name gives are not always drawn.

Vps34, sequence (Q8NEB9 whole entry): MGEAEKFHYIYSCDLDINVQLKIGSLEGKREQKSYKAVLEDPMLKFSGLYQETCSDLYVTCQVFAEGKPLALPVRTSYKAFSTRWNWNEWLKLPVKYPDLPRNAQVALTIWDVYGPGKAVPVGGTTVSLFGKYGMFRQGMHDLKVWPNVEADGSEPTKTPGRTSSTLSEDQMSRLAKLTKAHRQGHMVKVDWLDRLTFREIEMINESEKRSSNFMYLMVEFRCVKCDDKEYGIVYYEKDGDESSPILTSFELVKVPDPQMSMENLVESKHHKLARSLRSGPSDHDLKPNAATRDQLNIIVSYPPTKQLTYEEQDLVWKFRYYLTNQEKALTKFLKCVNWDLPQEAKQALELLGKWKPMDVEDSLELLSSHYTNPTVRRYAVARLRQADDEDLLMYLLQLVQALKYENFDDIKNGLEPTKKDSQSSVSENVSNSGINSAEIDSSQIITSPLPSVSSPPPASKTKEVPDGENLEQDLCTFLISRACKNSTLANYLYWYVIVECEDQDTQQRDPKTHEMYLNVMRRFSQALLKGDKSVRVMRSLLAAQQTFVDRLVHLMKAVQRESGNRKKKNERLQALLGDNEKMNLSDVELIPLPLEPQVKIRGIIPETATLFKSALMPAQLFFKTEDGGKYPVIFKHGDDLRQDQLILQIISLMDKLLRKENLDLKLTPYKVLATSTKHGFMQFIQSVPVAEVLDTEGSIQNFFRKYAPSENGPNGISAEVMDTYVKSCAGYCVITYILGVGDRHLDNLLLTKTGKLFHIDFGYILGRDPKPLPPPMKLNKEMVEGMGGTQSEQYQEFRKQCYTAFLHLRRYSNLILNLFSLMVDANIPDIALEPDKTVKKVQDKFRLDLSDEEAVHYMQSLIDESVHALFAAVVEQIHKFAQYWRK

This assay addresses Vps34 (Homo sapiens (Human), UniProt Q8NEB9). As to conditions: read-out: Assay C VPS34 IC50.
Turning to `Cc1cc(-c2cc(-c3cc(S(=O)(=O)N[C@@H]4CNC[C@H]4O)ccc3C)cnc2N)on1` [Example 19.4, 3-(6-amino-5-(3-methylisoxazol-5-yl)pyridin-3-yl)-N-(trans-4-hydroxypyrrolidin-3-yl)-4-methylbenzenesulfon-amide acetic acid salt], the IC50 (as a rule, the point on the concentration scale where inhibition reaches its midpoint) was over 10 µM.
With `Cc1cc(-c2cc(-c3cc(S(=O)(=O)NCCC4(O)CCCC4)ccc3C)cnc2N)on1` [Example 37.16, 3-(6-Amino-5-(3-methylisoxazol-5-yl)pyridin-3-yl)-N-(2-(1-hydroxycyclopentyl)ethyl)-4-methylbenzenesulfonamide], the IC50 is over 10 µM.
Next, `Cc1ncc(-c2cc(-c3cc(S(=O)(=O)NCC4(CO)COC4)ccc3C)cnc2N)s1` [Example 68, 3-(6-Amino-5-(2-methylthiazol-5-yl)pyridin-3-yl)-N-((3-(hydroxymethyl)oxetan-3-yl)methyl)-4-methylbenzenesulfonamide]: 8.4 µM; `Cc1cc(-c2cc(-c3cc(S(=O)(=O)NCC4(O)CCOCC4)ccc3C)cnc2N)on1` [Example 54, 3-(6-Amino-5-(3-methylisoxazol-5-yl)pyridin-3-yl)-N-((4-hydroxytetrahydro-2H-pyran-4-yl)methyl)-4-methylbenzenesulfonamide]: over 10 µM.
`Cc1cc(-c2cc(-c3cc(S(=O)(=O)N4CCOC[C@H]4C)ccc3C)cnc2N)on1` [Example 19.6, (R)-5-(2-methyl-5-((3-methylmorpholino)sulfon-yl)phenyl)-3-(3-methylisoxazol-5-yl)pyridin-2-amine trifluoroacetic acid salt]: the IC50 is over 10 µM.
For `CCN1CCC[C@@H]1CNS(=O)(=O)c1ccc(C)c(-c2cnc(N)c(-c3cc(C)no3)c2)c1` [Example 37.27, (R)-3-(6-Amino-5-(3-methylisoxazol-5-yl)pyridin-3-yl)-N-((1-ethylpyrrolidin-2-yl)methyl)-4-methylbenzenesulfonamide], the IC50 was over 10 µM.
Turning to `Cc1ncc(-c2cc(-c3cc(S(=O)(=O)NCC4(CO)COC4)ccc3C)cnc2N)o1` [Example 67, 3-(6-Amino-5-(2-methyloxazol-5-yl)pyridin-3-yl)-N-((3-(hydroxymethyl)oxetan-3-yl)methyl)-4-methylbenzenesulfonamide], the IC50 came to 9.5 µM.
Next, `Cc1cc(-c2cc(-c3cc(S(=O)(=O)N[C@H]4CC[C@H](N)CC4)ccc3C)cnc2N)on1` [Example 19.3, 3-(6-amino-5-(3-methylisoxazol-5-yl)pyridin-3-yl)-N-(trans-4-aminocyclohexyl)-4-methylbenzenesulfon-amide acetic acid salt]: over 10 µM; `Cc1ccc(S(=O)(=O)NOCC(C)(C)O)cc1-c1cnc(N)c(-c2cnn(CC(F)(F)F)c2)c1` [Example 34, 3-(6-Amino-5-(1-(2,2,2-trifluoroethyl)-1H-pyrazol-4-yl)pyridin-3-yl)-N-(2-hydroxy-2-methylpropoxy)-4-methylbenzenesulfonamide hydrochloride]: over 10 µM; `Cc1cc(-c2cc(-c3cc(S(=O)(=O)NCC4(CO)COC4)ccc3C)cnc2N)on1` [Example 50, 3-(6-Amino-5-(3-methylisoxazol-5-yl)pyridin-3-yl)-N-((3-(hydroxymethyl)oxetan-3-yl)methyl)-4-methylbenzenesulfonamide]: over 10 µM.
Next, `Cc1ccc(S(=O)(=O)NCC(C)(C)O)cc1-c1cnc(N)c(-c2cnn(C)c2C)c1` [Example 61, 3-(6-Amino-5-(1,5-dimethyl-1H-pyrazol-4-yl)pyridin-3-yl)-N-(2-hydroxy-2-methylpropyl)-4-methylbenzenesulfonamide]: over 10 µM; `Cc1cc(-c2cc(-c3cc(S(=O)(=O)N4CCCC(C)(O)CC4)ccc3C)cnc2N)on1` (stereo not drawn) [Example 19.21, 1-((3-(6-amino-5-(3-methylisoxazol-5-yl)pyridin-3-yl)-4-methylphenyl)sulfonyl)-4-methylazepan-4-ol trifluoroacetic acid salt]: over 10 µM.
